Bridge positions count the residues as written; N and C are the ends. Ends that are not written are not given here.
Tests used:
[1] = tested on: wild-type MDA-MB-231 cells; experiment: Flow cytometry binding of FITC-conjugated phages; assay type: cell-based, human; conditions: phage displaying the peptide; compared to 04cys_EGFR and 30cys_EGFR phages
Source text: Phages expressing peptide sequences (01cys_EGFR, 04cys_EGFR, 06cys_EGFR, and 30cys_EGFR) and a wild-type M13 phage were conjugated to fluorescein isothiocyanate (FITC) in order to analyze their binding affinity to EGFR on MDA-MB-231 by flow cytometry. The “Pierce FITC Antibody Labeling Kit” (cat #53027—Thermo Fisher Scientific) was used for the conjugation following the manufacturer’s instructions.
(§1) We analyzed the binding of FITC-conjugated phages on MDA-MB231 cells by flow cytometry. A binding assay was also performed with FITC-conjugated peptides to human MDA-MB-231 and BT-549 cells, murine 4T1 cells, and additional EGFR-positive thyroid cancer cell lines K1 and Cal62. To increase the stringency conditions of in vitro binding, adherent cells were incubated with 10 μg/mL of 01cys_EGFR and 06_cys EGFR for 45 min in the dark at 37 °C instead of 4 °C of the standard protocol. Cells were recovered by a cell scraper, then twice washed with PBS and suspended in 300 μL of BD™ FACSFlow™ fluid. Data were acquired on the BD FACSCanto™ II and analyzed with FlowJo software (Becton Dickinson, San Jose, CA, USA).
The binding ability of phages 01cys_EGFR, 04cys_EGFR, 06cys_EGFR, and 30cys_EGFR to the MDA-MB-231 cells were analyzed by flow cytometry. To this end, the phages were conjugated with fluorescein isothiocyanate (FITC) and incubated with wild-type MDA-MB-231 or MDA-MB-231 EGFR- KO cells. […]

BT549 cells = experiment: Cell cycle analysis by propidium iodide flow cytometry; assay type: cell-based, human; conditions: 24 h; for mitogenic activity through the binding to the EGFR: 25 μM, BT549; for cells in G1 phase / cells in G2 phase / cells in S phase: free peptide 25 μM, after 18 h serum starvation, 0.2% FBS, PI staining, two experiments
Experimental: BT549 cells (200,000 cells/well) were seeded onto a 6-well plate in RPMI-1640 complete medium. After adhesion, cells were starved in serum-free RPMI-1640 for 18 h, and then the medium was changed to RPMI-1640 supplemented with 0.2% FBS in the presence or absence of control, 01cys_EGFR and 06_cys EGFR peptides (25 μM). After 24 h of peptide stimulation, cells were trypsinized, washed, and suspended in PBS. Cells were fixed with 1 mL of ice-cold 70% ethanol and incubated for 30 min at 4 °C. Fixed cells were washed three times and stained with 50 μg/mL of propidium iodide and 40 μg/mL of RNAse A. Cell cycle profile was acquired by FACS Canto II and analyzed by Flow Jo software 8.8.6 (Becton Dickinson).
Next, we tested whether the peptides 01cys_EGFR and 06cys_EGFR could affect the cell cycle through the binding to EGFR. To this end, BT549 cells were serum starved for 18h to induce synchronization and then treated with 01cys_EGFR, 06cys_EGFR, and the irrelevant control peptides (25 μM) or left untreated for 24 h. Proliferating cells were stained with propidium iodide to analyze cell cycle distribution by flow cytometry (Figure 7A). The cells treated with 01cys_EGFR, 06cys_EGFR, and control peptides were distributed ~26% in G1, ~64% in S, and ~10% in the G2 phase, which was a similar behavior to unstimulated cells (Figure 7B).
Figure 7 (A) The proportion of BT549 cells untreated or treated with 25 μM of control, 01cys_EGFR, and 06cys_EGFR peptides in G1, S, and G2 phases were determined by flow cytometry and quantified by Flow Jo software using Watson Pragmatic method. […] Data are collected from two different experiments and presented as means ± SD. Paired t-test indicates no statistical significance between peptide-stimulated and unstimulated cells.

[2] = tested on: MDA-MB-231 xenograft tissue; experiment: Confocal immunofluorescence of tumor xenograft tissue sections with FITC-peptides; parameters: species or system human; conditions: MDA-MB-231 xenograft tissue sections, FITC-peptide 10 μg/mL, 45 min, 37 °C; confocal microscopy
Experimental: (§2) OCT-embedded MDA-MB-231 xenograft tissue samples derived from Balb/c nude mice were cut in 8–10 µm sections and mounted onto microscope slides for confocal microscopy analysis. Sections were fixed with 4% paraformaldehyde for 30 min at 4 °C, and then for 45 min, incubated at 4 °C with rabbit polyclonal anti-EGFR (1:100 dilution -Bethyl Laboratories, Inc., Montgomery, TX, USA) followed by Alexa Fluor 568-labeled anti-rabbit secondary antibody (1:500 dilution; Thermo Fisher Scientific). After washing, cells were incubated in the dark with FITC-conjugated peptides (Control, 01_cysEGFR, 06_cysEGFR) (10 μg/mL) for 45 min at 37 °C, anti-Wheat Germ Agglutinin (WGA) Alexa Fluor 647 conjugate (1:200 dilution; Thermo Fisher Scientific) for 45 min, and finally with DAPI at the dilution 1:500 for 10 min. Cells were prepared with mounting medium (ProLong antifade, Thermo Fisher Scientific) and visualized by confocal microscopy (LEICA TCS SP8).
Then, we asked whether the 01_cysEGFR and 06_cysEGFR peptides could be used for in vivo analysis of tumor tissues expressing EGFR. To this end, we generated MDA-MB-231 tumor xenograft in mice and performed confocal microscopy analysis of tumor tissue sections upon immunofluorescence staining with FITC-peptides (green signal) or anti-EGFR (red signal) (Figure 6). […]

[3] = tested on: MDA-MB-231 EGFR KO xenograft; experiment: as above; parameters: species or system human; conditions: MDA-MB-231 EGFR KO xenograft sections, FITC-peptide 10 μg/mL, 45 min, 37 °C; confocal microscopy
Experimental: as §2
EGFR was detected in the MDA-MB-231 xenograft tissue sections by an anti-EGFR antibody as a red fluorescence signal, while it was undetected in MDA-MB-231 EGFR KO (Figure 6).

[4] = tested on: thyroid cancer cell lines (Cal62 and K1); experiment: Flow cytometry binding of FITC-peptides to EGFR-positive thyroid cancer cells; assay type: cell-based, human; conditions: Cal62 and K1, especially K1; 10uM FITC-peptide, 45 min; compared with 06cys_EGFR
Experimental: as §1
In order to evaluate the binding efficacy of our peptides in other EGFR-overexpressing cancer cell types, we choose two different thyroid cancer cell lines (Cal62 and K1).
Figure S3. Pe p t i d e binding assay in EGFR-positive thyroid cancer cells using ﬂow cytometry. Flow cytometric analysis showing EGFR-overexpressing thyroid cancer cell lines K1 and Cal62 unstained or stained with 10uM of FITC- conjugate peptides (control, 01_cysEGFR and 06cys_EGFR) for 45 […]

[5] = cited from earlier work
Source text: (§3) TNBC is the most aggressive form of breast cancer. There are different TNBC subtypes characterized by intratumor heterogeneity based on morphology, gene expression profile, and response to adjuvant chemotherapies. Unfortunately, TNBC is still lacking effective anticancer targets for clinical treatment. This justifies the urgency to explore new biomarkers and therapeutic strategies for improving the survival outcomes of TNBC patients. EGFR is a tyrosine kinase membrane receptor that contains in the extracellular region the docking site for the epidermal growth factor a ...

MDA-MB-468 cells = conditions: cited from earlier work
Source text: as §3

MDA-MB-231 cells = conditions: cited from earlier work
Source text: as §3

Row | Sequence | binding of FITC-conjugated phage (percentage of fluorescence) [1] | mitogenic activity through the binding to the EGFR (BT549 cells) | cells in G1 phase (BT549 cells) | cells in G2 phase (BT549 cells) | cells in S phase (BT549 cells) | green fluorescence signal (FITC-peptide staining) [2] | green fluorescence signal (FITC-peptide staining) [3] | efficacy of binding to thyroid cancer cells [4] | serum stability [5] | uptake (MDA-MB-468 cells) | uptake (MDA-MB-231 cells)
1 | CPSDEHHTC (disulfide 1-9 (inferred)) [06cys_EGFR, Phage-display selected cyclic EGFR peptide ligand, one disulphide bond, amidated C-terminus] | higher efficiency | lacked mitogenic activity | ~ 26% | ~ 10% | ~ 64% |  |  |  |  |  | 
2 | CEKMVATHC (disulfide 1-9 (inferred)) [01cys_EGFR, Phage-display selected cyclic EGFR peptide ligand, one disulphide bond, amidated C-terminus] | higher efficiency | lacked mitogenic activity | ~ 26% | ~ 10% | ~ 64% | stronger green fluorescence signal | lack of fluorescence | higher efficacy of binding |  |  | 
3 | CGGNGPGLC (disulfide 1-9 (inferred)) [irrelevant peptide, Irrelevant peptide synthesized as a negative control, reference compound] |  |  | ~ 26% | ~ 10% | ~ 64% | lack of green fluorescence signal |  |  |  |  | 
4 | YHWYGYTPENVI [peptide 22] |  |  |  |  |  |  |  |  | low serum stability | highest uptake | highest uptake

Source: PMC10093212, “Development of Cyclic Peptides Targeting the Epidermal Growth Factor Receptor in Mesenchymal Triple-Negative Breast Cancer Subtype” (Cells, 2023)
